Where a SMILES comes first, the peptide text is derived from it. Where no end group is shown, it is not given here.
Experiments:
beta-amyloid 1-42 [1] = test: Inhibition of entry of beta-amyloid 1-42 into brain II (ELISA of brain); format: in vivo; details: ICR mice, peptide 25 mg/kg intraperitoneally; for Beta-amyloid 1-42 concentration in brain: 20 min before i.v. 25 μM beta-amyloid 1-42, control group 60.8 ± 14.8, normal group 0.0 ± 11.9
Method: Based on the test results of Example 1, the following test was conducted in order to evaluate whether Example 2 and Comparative Examples 1 and 2, in addition to Example 1, are effective at inhibiting the entry of beta-amyloid 1-42 into the brain.
Specifically, 1 mg ofbeta-amyloid 1-42 (American Peptide Company, Sunnyvale, Calif., USA) was added with 2 ml of hexafluoroisopropanol (HFIP), allowed to stand at room temperature for 3 days, and aliquoted at 100 μl each into tubes. After evaporation of hexafluoroisopropanol (HFIP) using a speed vacuum, 10 μl of an anhydrous DMSO (dimethyl sulfoxide) solution was placed in one of the aliquoted tubes, so as to realize sufficient dissolution, after which 400 μl of phosphate buffer saline (PBS) was added thereto, thus preparing a 25 μM beta-amyloid 1-42 solution.
ICR mice (The Jackson Laboratory, Bar Harbor, Me., USA) were divided into a normal group, a control group and four test groups. The respective test groups were intraperitoneally administered with the peptide of each of Example 1, Example 2, Comparative Example 1, and Comparative Example 2 in amounts of 25 mg/kg, and the control group was treated in the same manner as in the test group, with the exception that an excipient (10% DMSO in saline, 10 ml/kg) was used in lieu of the peptide. After 20 min, the control group and the test groups were intravenously (i.v.) injected through the tail vein with 400 μl of 25 μM beta-amyloid 1-42. Furthermore, the normal group was treated in the same manner as in the control group, with the exception that beta-amyloid 1-42 was not added. 10 min after the tail venous injection of beta-amyloid, about 50 μl of blood was collected from the infraorbital vein of each mouse using a sodium-heparinized capillary tube, after which the mouse was immediately subjected to euthanasia with carbon dioxide (CO2) gas and then the right hemisphere of the mouse was extracted and stored in liquid nitrogen. All the collected blood samples were centrifuged at 13,000 rpm for 10 min. The supernatant was isolated, placed in the prepared tube, and diluted at 1/4000, followed by ELISA (Enzyme-Linked ImmunoSorbent Assay or Enzyme-Linked ImmunoSpecific Assay) ofbeta-amyloid 1-42.
The frozen right hemisphere was added with 3 ml of a RIPA buffer (Radio Immuno Precipitation Assay buffer), sonicated, and centrifuged, after which the supernatant was isolated, followed by protein concentration measurement through BCA assay (bicinchoninic acid assay). BCA assay was performed in accordance with the kit (Thermo Scientific, Waltham, Mass., USA, Cat. No. 23227) protocol. The beta-amyloid 1-42 concentration in the brain was measured through ELISA in a RIPA-homogenate. ELISA was performed in accordance with the kit (IBL International, Hamburg, Germany, Code No. 27711) protocol.

beta-amyloid 1-42 [2] = test: Inhibition of entry of blood beta-amyloid 1-42 into brain I (ELISA of brain and plasma); format: in vivo; details: ICR mice; for beta-amyloid 1-42 concentration in the brain: 20 min before i.v. 400 μl of 25 μM beta-amyloid 1-42, brain taken 10 min after
Method: The inhibition of entry of blood beta-amyloid 1-42 into the brain by the peptide of Example 1 was experimentally verified. Specifically, in order to evaluate the effect of the peptide of Example 1 on inhibiting the entry of beta-amyloid 1-42 into the brain, which is the cause of Alzheimer's disease, 1 mg of beta-amyloid 1-42 (American Peptide Company, Sunnyvale, Calif., USA) was added with 2 ml of hexafluoroisopropanol (HFIP), allowed to stand at room temperature for 3 days, and aliquoted at 100 μl each into tubes. After evaporation of hexafluoroisopropanol (HFIP) using a speed vacuum, 10 μl of an anhydrous DMSO (dimethyl sulfoxide) solution was placed in one of the aliquoted tubes, so as to realize sufficient dissolution, after which 400 μl of phosphate buffer saline (PBS) was added thereto, thus preparing a 25 μM beta-amyloid 1-42 solution.
ICR mice (The Jackson Laboratory, Bar Harbor, Me., USA) were divided into a normal group, a control group and two test groups. The respective test groups were intraperitoneally administered with the peptide of Example 1 in amounts of 2.5 mg/kg and 25 mg/kg, and the control group was treated in the same manner as in the test group, with the exception that an excipient (10% DMSO in saline, 10 ml/kg) was used in lieu of the peptide of Example 1. After 20 min, the control group and the test groups were intravenously (i.v.) injected through the tail vein with 400 μl of 25 μM beta-amyloid 1-42. Furthermore, the normal group was treated in the same manner as in the control group, with the exception that beta-amyloid 1-42 was not added. […]
The frozen right hemisphere was added with 3 ml of a RIPA buffer (Radio Immuno Precipitation Assay buffer), sonicated, and centrifuged, after which the supernatant was isolated, followed by protein concentration measurement through BCA assay (bicinchoninic acid assay). […] The beta-amyloid 1-42 concentration in the brain was measured through ELISA in a RIPA-homogenate. […]

beta-amyloid 1-42 [3] = test: Biomarker change in animal models: brain beta-amyloid 1-42 by ELISA; format: in vivo, DTg mouse; details: DTg mice, 50 mg/kg intraperitoneally for 13 weeks; control 76.03±25.63
Method: (§1) In order to evaluate the effect of changing the biomarker using animal models in which an administration period of a total of 13 weeks was terminated in the <Evaluation of learning and memory recovery effects using animal models> test, the following test was conducted. After termination of intraperitoneal administration for a total of 13 weeks, the animal models were subjected to euthanasia using carbon dioxide (CO2) and the brain thereof was immediately extracted. Upon brain extraction, the entire brain was taken out so as not to be scratched, and was then lightly washed with saline solution. […]
(§2) The left hemisphere stored in a deep freezer at −80° C. was placed in a RIPA buffer (Radio Immuno Precipitation Assay buffer) and sonicated, thus preparing a brain homogenate. Thereafter, the amount of protein was measured through BCA assay (BicinChoninic Acid assay). […] The biomarker expression level was measured through ELISA, and ELISA assay was performed in accordance with the kit{Amyloid-beta(1-42) Elisa kit: IBL International, Hamburg, Germany (27711), TNF-alpha ELISA kit: Koma Biotech, Seoul, Korea (K0331186P), GFAP Elisa kit: Millipore Corporation, Billerica, Mass., USA (NS830)} protocol. […]
(§3) The biomarkers measured through ELISA were beta-amyloid 1-42, TNF-alpha, and GFAP (glial fibrillary acidic protein). […]

[4] = test system: double transgenic mouse (DTg mouse) models having induced human Alzheimer's disease; test: Learning and memory recovery, Y-maze test in Alzheimer's model mice; format: in vivo; details: 50 mg/kg intraperitoneally once a day, 5 times a week, test 10 weeks after administration, control 49.44±3.88%, P<0.01
Excerpt: The learning and memory recovery effects of the peptide of Example 1 were experimentally verified. Specifically, in order to evaluate the effect of the peptide of Example 1 on inhibiting learning and memory reduction, which are symptoms of Alzheimer's disease, 30-week-old double transgenic mouse (DTg mouse, Jackson Laboratory, USA) models having induced human Alzheimer's disease, obtained in a manner in which a human-derived gene of beta-amyloid precursor protein APP (APPsw; amyloid mutation) having Swedish mutation and a human-derived gene in the form of exon-9 deletion of a gamma secretase PSI gene were over-expressed in the brain through genetic manipulation, were used for tests.
The test animals were acclimated in an animal room after purchase in accordance with the Guidelines for Experimental Animal Tests and treated in accordance with the approved Animal Experimental Plan. The test conditions were maintained at a temperature of 23±1° C. and a humidity of 50±5%, and the light/dark cycle was 12 hr ([…]). During the testing, animals were free to consume water and feed. […]
The Y-maze test is an experiment to observe the voluntary tendency of an animal to search a new environment using short-term memory ability. […] Spontaneous alternation (%) was calculated using the following equation. […]

[5] = test system: GFAP (glial fibrillary acidic protein); test: Biomarker change in animal models: brain GFAP by ELISA; format: in vivo, DTg mouse; details: DTg mice, 50 mg/kg intraperitoneally for 13 weeks; control 70.61±26.82
Method: as §1, §2, §3

TNF-alpha = test: Biomarker change in animal models: brain TNF-alpha by ELISA; format: in vivo, DTg mouse; details: DTg mice, 50 mg/kg intraperitoneally for 13 weeks; control 1109.91±285.30; p<0.05
Method: as §1, §2, §3

| Compound | entry of beta-amyloid into the brain (result in words) (beta-amyloid 1-42 [1]) | Beta-amyloid 1-42 concentration in brain (beta-amyloid 1-42 [1]) [pg/mg protein] | beta-amyloid 1-42 concentration in the brain (beta-amyloid 1-42 [2]; peptide 2.5 mg/kg intraperitoneally) [pg/mg] | beta-amyloid 1-42 concentration in the brain (beta-amyloid 1-42 [2]; peptide 25 mg/kg intraperitoneally) [pg/mg] | plasma beta-amyloid levels versus control group (beta-amyloid 1-42 [2]; peptide 2.5 and 25 mg/kg intraperitoneally, blood 10 min after i.v. beta-amyloid 1-42) | beta-amyloid 1-42 concentration in brain homogenate (beta-amyloid 1-42 [3]) [ng/mg protein] | spontaneous alternation (Y-maze test) [4] [%] | GFAP concentration in brain homogenate [5] [ng/mg protein] | TNF-alpha concentration in brain homogenate (TNF-alpha) [pg/mg protein] |
| --- | --- | --- | --- | --- | --- | --- | --- | --- | --- |
| VKMDAEFR [Comparative Example 2] | did not inhibit | 87.6 ± 14.9 |  |  |  |  |  |  |  |
| DGEFF [Example 1, DGEFF] |  | 54.8 ± 8.0 | 195.5 ± 5.6 | 187.8 ± 2.4 | not greatly different | 57.56±28.47 | 63.22±2.56 | 47.63±24.92 | 798.99±172.90 |
| N[C@@H](CC(=O)O)C(=O)NCC(=O)N[C@@H](CCC(=O)O)C(=O)N[C@@H](Cc1ccccc1)C(=O)O [Example 2, DGEF] (H-DGEF-OH; N-terminus and C-terminus assumed) | effectively inhibited | 48.8 ± 14.7 |  |  |  |  |  |  |  |
| DAEF [Comparative Example 1] | did not inhibit | 69.5 ± 6.1 |  |  |  |  |  |  |  |
